We go through 1 compound from patent US20040214785A1, “Surface sanitizing compositions with improved antimicrobial performance” (priority 2003, published 2004).

The conditions of data set [1]: topically-applied; cited from earlier work.
For data set [2] the following is noted: cited from earlier work.
The test system of data set [3] is bacterial counts on hands. The following applies: Triclosan (0.1%), after a 1-minute hygienic handwash; cited from earlier work.
Another data set deals with E. coli. The following applies: against E. coli; Johnson et al. 2002; cited from earlier work.
For data set [4], the system named is methicillin-resistant Staphylococcus aureus (MRSA). Nature of the data set: Bactericidal assay (MBC), subculture of dilutions on TSB agar. It counts as cell-based. The following applies: challenge with 1×10^4 MRSA.
Description: S. aureus maintained as a frozen culture with 10% (v/v) glycerol at −80° C. was thawed and then propagated on trypticase soy broth (TSB) or agar plates at room temperature (R.T.); determinations for Most Probable Number (MPN) in given samples were performed at 37° C., using standard assay techniques.
Tested sanitizers comprised commercially available gel products (i.e., “Brand A” and “Brand B”) from two manufacturers; these gels were comprised substantially of ethanol (60-70% w/w). […] Additional prototype liquid preparations (“Brand C1” and “Brand C2”) were substantially comprised of mixtures of alcohol (60-70% ethanol or isopropanol, w/w) combined with triclosan (approximately 0.04% w/w). Finally, triclosan was added to certain of the commercially available products (Brand B) to yield modified products containing triclosan at a level of approximately 0.04% w/w (“Brand B1”).
Killing of bacteria at each dilution (i.e., minimum bactericidal concentration, MBC) was determined by removing 5 μL aliquots and subculturing these on the surface of a TSB agar plate. Plates were incubated overnight at 37° C. and observed for growth. Studies were performed at 30 sec, at 5, 10, and 30 min, and at 1, 2, 4, and 8 hours after adding the challenge bacteria.
The next data set has as its system bacteria. The following applies: MMWR/RR-16; cited from earlier work.
In another data set the test system is S. aureus. The following applies: against S. aureus; Johnson et al. 2002; cited from earlier work.

Converted amounts (≈) assume the structure as drawn.

Consider `Oc1cc(Cl)ccc1Oc1ccc(Cl)cc1Cl` [Triclosan, 2,4,4′-trichloro-2′-hydroxy-diphenyl ether], for which, in data set [1], the “penetration into human skin” value was “minimal penetration into human skin”. Further, the solubility in water result in data set [2] was “substantially insoluble in water”. The “reduction of bacterial counts on hands” value in data set [3] is 2.8 log10. In addition, the values for the MBC in the data set on E. coli and in the data set on S. aureus were 1.3 µg/mL (≈ 4.49 µM) and 7.5 µg/mL (≈ 25.9 µM), respectively. In data set [4], the “dilution at which preparation is still bactericidal” value is recorded as no more than 10 fold. Moreover, in the data set on bacteria, the minimum bactericidal concentrations is 25 to 500 µg/mL.
